Data: PubChem BioAssay AID248 (DTP/NCI, 2004)
Where “and” joins values, the source holds several entries; their conditions need not be identical. Identical values can stand only once. Inconclusive results and toxic doses are left out. No stated cut-off is given here; in the data, active means T/C of 150% or more; inactive means T/C below 125%.

Test system: L1210 leukemia ip in BDF1 mice, survival T/C
Experiment: NCI In Vivo Anticancer Drug Screen. Data for tumor model L1210 Leukemia (intraperitoneal) in B6D2F1 (BDF1) mice
Details: endpoint: mean survival time, higher = longer survival
Summary of the method: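 Mice bearing the transplanted tumor received compound or vehicle. Survival of the treated group was divided by that of the vehicle-treated control group to give the ratio.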

[1] = dose: 50.0 mg/kg/injection, schedule: Q01DX009 (ip), vehicle: saline with Tween-80
[2] = dose: 100.0 mg/kg/injection, schedule: Q04DX003 (ip), vehicle: saline with Tween-80
[3] = dose: 200.0 mg/kg/injection, schedule: Q04DX003 (ip), vehicle: saline with Tween-80
[4] = dose: 400.0 mg/kg/injection, schedule: Q04DX003 (ip), vehicle: saline with Tween-80
[5] = dose: 100.0 mg/kg/injection, schedule: Q04DX002 (ip), vehicle: Klucel (hydroxypropylcellulose) (HPC)
[6] = dose: 200.0 mg/kg/injection, schedule: Q04DX002 (ip), vehicle: Klucel (hydroxypropylcellulose) (HPC)
[7] = dose: 50.0 mg/kg/injection, schedule: Q01DX009 (ip), vehicle: saline
[8] = dose: 100.0 mg/kg/injection, schedule: Q01DX009 (ip), vehicle: saline
[9] = dose: 100.0 mg/kg/injection, schedule: Q04DX003 (ip), vehicle: saline
[10] = dose: 200.0 mg/kg/injection, schedule: Q04DX003 (ip), vehicle: saline
[11] = dose: 400.0 mg/kg/injection, schedule: Q04DX002 (ip), vehicle: Klucel (hydroxypropylcellulose) (HPC)
[12] = dose: 100.0 mg/kg/injection, schedule: Q01DX001 (ip), vehicle: other
[13] = dose: 200.0 mg/kg/injection, schedule: Q01DX001 (ip), vehicle: other
[14] = dose: 400.0 mg/kg/injection, schedule: Q01DX001 (ip), vehicle: other
[15] = dose: 100.0 mg/kg/injection, schedule: Q01DX009 (ip), vehicle: saline with Tween-80
[16] = dose: 200.0 mg/kg/injection, schedule: Q01DX009 (ip), vehicle: saline with Tween-80
[17] = dose: 200.0 mg/kg/injection, schedule: Q01DX009 (ip), vehicle: saline

Measured: T/C

O=C(Nc1ccc(F)cc1)Nc1ccc(Cl)cc1[N+](=O)[O-]
inactive: [1] 94 % of control and 95 % of control | dose: 100.0 mg/kg/injection, schedule: Q01DX001 (ip), vehicle: saline with Tween-80 100 % of control | dose: 100.0 mg/kg/injection, schedule: Q04DX002 (ip), vehicle: saline with Tween-80 102 % of control and 92 % of control | [2] 100 % of control | dose: 200.0 mg/kg/injection, schedule: Q01DX001 (ip), vehicle: saline with Tween-80 95 % of control | dose: 200.0 mg/kg/injection, schedule: Q04DX002 (ip), vehicle: saline with Tween-80 95 % of control and 101 % of control | [3] 97 % of control | dose: 400.0 mg/kg/injection, schedule: Q01DX001 (ip), vehicle: saline with Tween-80 92 % of control | dose: 400.0 mg/kg/injection, schedule: Q04DX002 (ip), vehicle: saline with Tween-80 93 % of control and 98 % of control | [4] 94 % of control

CC(=O)c1c[nH]c2c(O)ccc(O)c12
inactive: dose: 6.25 mg/kg/injection, schedule: Q04DX002 (ip), vehicle: Klucel (hydroxypropylcellulose) (HPC) 93 % of control | dose: 12.5 mg/kg/injection, schedule: Q04DX002 (ip), vehicle: Klucel (hydroxypropylcellulose) (HPC) 96 % of control | dose: 25.0 mg/kg/injection, schedule: Q04DX002 (ip), vehicle: Klucel (hydroxypropylcellulose) (HPC) 99 % of control and 107 % of control

Cc1cccn2c(=O)cc(O)nc12
inactive: dose: 50.0 mg/kg/injection, schedule: Q01DX001 (ip), vehicle: saline 112 % of control | dose: 100.0 mg/kg/injection, schedule: Q01DX001 (ip), vehicle: saline 110 % of control | dose: 200.0 mg/kg/injection, schedule: Q01DX001 (ip), vehicle: saline 116 % of control | dose: 400.0 mg/kg/injection, schedule: Q01DX001 (ip), vehicle: saline 103 % of control

O=S(=O)(/C=N\N=P(c1ccccc1)(c1ccccc1)c1ccccc1)c1ccccc1-c1ccccc1
inactive: [2] 109 % of control | [3] 98 % of control | [4] 93 % of control

CC(=O)OCC(OS(=O)(=O)c1ccc(C)cc1)C(OC(C)=O)C(OC(C)=O)C(COC(C)=O)OS(=O)(=O)c1ccc(C)cc1 (stereo not drawn)
inactive: dose: 50.0 mg/kg/injection, schedule: Q04DX002 (ip), vehicle: Klucel (hydroxypropylcellulose) (HPC) 90 % of control | [5] 101 % of control | [6] 101 % of control

COc1cc2cc[n+](C)cc2cc1OC
inactive: [7] 111 % of control | [8] 108 % of control | [9] 104 % of control | [10] 107 % of control

CC1=[N+](C)C(C)(C)CC(C)O1 (stereo not drawn)
inactive: dose: 6.25 mg/kg/injection, schedule: Q01DX009 (ip), vehicle: saline 105 % of control | dose: 6.25 mg/kg/injection, schedule: Q04DX003 (ip), vehicle: saline 94 % of control | dose: 12.5 mg/kg/injection, schedule: Q01DX009 (ip), vehicle: saline 96 % of control | dose: 12.5 mg/kg/injection, schedule: Q04DX003 (ip), vehicle: saline 105 % of control | dose: 25.0 mg/kg/injection, schedule: Q01DX009 (ip), vehicle: saline 105 % of control | dose: 25.0 mg/kg/injection, schedule: Q04DX003 (ip), vehicle: saline 96 % of control

O=C(Oc1ccc(S(=O)(=O)F)cc1Cl)c1ccc([N+](=O)[O-])cc1
inactive: [5] 118 % of control | [6] 96 % of control | [11] 96 % of control

O=C(NC(=O)C(C(=O)c1ccccc1)c1ccccc1)c1ccccc1 (stereo not drawn)
inactive: [12] 86 % of control | [13] 89 % of control | [14] 91 % of control

Nc1nc(N)nc(C(c2ccccc2)c2ccccc2)n1
inactive: [5] 103 % of control | [6] 94 % of control | [11] 87 % of control

O=C1c2ccccc2Cc2ccc(-c3ccccc3)cc21
inactive: [1] 92 % of control | [15] 95 % of control | [16] 89 % of control

O=P(NC12CC3CC(CC(C3)C1)C2)(OCc1ccccc1)OCc1ccccc1
inactive: dose: 75.0 mg/kg/injection, schedule: Q01DX009 (ip), vehicle: Klucel (hydroxypropylcellulose) (HPC) 97 % of control | dose: 150.0 mg/kg/injection, schedule: Q01DX009 (ip), vehicle: Klucel (hydroxypropylcellulose) (HPC) 90 % of control | dose: 300.0 mg/kg/injection, schedule: Q01DX009 (ip), vehicle: Klucel (hydroxypropylcellulose) (HPC) 95 % of control

CCCCCCCCCCCCOC(=O)OCCCCCCCCCCCC
inactive: [15] 91 % of control | [2] 97 % of control | [16] 91 % of control | [3] 101 % of control | [4] 101 % of control

COC1OC2COC(c3ccccc3)OC(OC)(C2)C1NC(C)=O (stereo not drawn)
inactive: dose: 100.0 mg/kg/injection, schedule: Q01DX001 (ip), vehicle: Klucel (hydroxypropylcellulose) (HPC) 102 % of control | dose: 200.0 mg/kg/injection, schedule: Q01DX001 (ip), vehicle: Klucel (hydroxypropylcellulose) (HPC) 101 % of control | dose: 400.0 mg/kg/injection, schedule: Q01DX001 (ip), vehicle: Klucel (hydroxypropylcellulose) (HPC) 98 % of control

O=C(O)C1C(C(=O)O)C2(Cl)C(Cl)=C(Cl)C1(Cl)C2(Cl)Cl.[Cu+2] (stereo not drawn)
inactive: dose: 25.0 mg/kg/injection, schedule: Q01DX001 (ip), vehicle: Klucel (hydroxypropylcellulose) (HPC) 92 % of control | dose: 50.0 mg/kg/injection, schedule: Q01DX001 (ip), vehicle: Klucel (hydroxypropylcellulose) (HPC) 97 % of control | dose: 50.0 mg/kg/injection, schedule: Q01DX009 (ip), vehicle: saline sonified 95 % of control

CN=C(NN)NN
inactive: dose: 2.5 mg/kg/injection, schedule: Q01DX009 (ip), vehicle: saline 106 % of control | dose: 5.0 mg/kg/injection, schedule: Q01DX009 (ip), vehicle: saline 95 % of control | dose: 5.0 mg/kg/injection, schedule: Q04DX003 (ip), vehicle: saline 95 % of control | dose: 10.0 mg/kg/injection, schedule: Q01DX001 (ip), vehicle: saline 102 % of control | dose: 10.0 mg/kg/injection, schedule: Q01DX009 (ip), vehicle: saline 97 % of control | dose: 10.0 mg/kg/injection, schedule: Q04DX003 (ip), vehicle: saline 103 % of control | dose: 20.0 mg/kg/injection, schedule: Q01DX001 (ip), vehicle: saline 103 % of control | dose: 20.0 mg/kg/injection, schedule: Q04DX003 (ip), vehicle: saline 90 % of control

O=c1[nH]cnc2nn(C3OC(CO)C(O)C3O)cc12 (stereo not drawn)
inactive: dose: 100.0 mg/kg/injection, schedule: Q01DX005 (ip), vehicle: saline 105 % of control | dose: 200.0 mg/kg/injection, schedule: Q01DX005 (ip), vehicle: saline 104 % of control

CC1(C)N=C(N)N=C(N)N1NC(=O)c1ccc(F)cc1
inactive: [8] 102 % of control | [17] 96 % of control

O=[N+]([O-])c1ccc(/C=N/c2ncc(Br)s2)o1
inactive: [1] 102 % of control | [15] 98 % of control | [2] 111 % of control | [3] 111 % of control

O=C1NCC2C3CCC(O3)C12 (stereo not drawn)
inactive: dose: 50.0 mg/kg/injection, schedule: Q04DX002 (ip), vehicle: saline 101 % of control | dose: 100.0 mg/kg/injection, schedule: Q04DX002 (ip), vehicle: saline 97 % of control and 103 % of control | dose: 200.0 mg/kg/injection, schedule: Q04DX002 (ip), vehicle: saline 105 % of control | dose: 400.0 mg/kg/injection, schedule: Q04DX002 (ip), vehicle: saline 97 % of control and 92 % of control

Cc1cc(O)c2c(c1O)C(=O)c1ccccc1C2=O
inactive: [7] 95 % of control | [8] 95 % of control | [9] 98 % of control | [17] 95 % of control | [10] 96 % of control | dose: 400.0 mg/kg/injection, schedule: Q01DX009 (ip), vehicle: saline 104 % of control | dose: 400.0 mg/kg/injection, schedule: Q04DX003 (ip), vehicle: saline 93 % of control

CC(NC(C)c1ccccc1)c1ccccc1 (stereo not drawn)
inactive: dose: 50.0 mg/kg/injection, schedule: Q01DX009 (ip), vehicle: Klucel (hydroxypropylcellulose) (HPC) 102 % of control | dose: 100.0 mg/kg/injection, schedule: Q01DX009 (ip), vehicle: Klucel (hydroxypropylcellulose) (HPC) 106 % of control | dose: 100.0 mg/kg/injection, schedule: Q04DX003 (ip), vehicle: Klucel (hydroxypropylcellulose) (HPC) 104 % of control | dose: 200.0 mg/kg/injection, schedule: Q04DX003 (ip), vehicle: Klucel (hydroxypropylcellulose) (HPC) 100 % of control

N/N=C/c1ccccc1[N+](=O)[O-]
inactive: [12] 97 % of control | [13] 95 % of control | [14] 111 % of control
